Source: patent US9169254B2, “Spiroimidazolone derivative” (Chugai Seiyaku Kabushiki Kaisha, priority 2009, dated 2015)

These compounds were tested against T1, human PTH1 receptor (Homo sapiens, UniProt Q03431) (assay: In vitro cAMP signal activity in HKRK-B7 cells (LLC-PK1 cells overexpressing the human PTH1 receptor)). Conditions: HKRK-B7 cells; compound at 1×10^−3 M; cAMP produced as percentage of that produced by hPTH(1-34) at 100 nM.
T1 sequence (Q03431 27-593): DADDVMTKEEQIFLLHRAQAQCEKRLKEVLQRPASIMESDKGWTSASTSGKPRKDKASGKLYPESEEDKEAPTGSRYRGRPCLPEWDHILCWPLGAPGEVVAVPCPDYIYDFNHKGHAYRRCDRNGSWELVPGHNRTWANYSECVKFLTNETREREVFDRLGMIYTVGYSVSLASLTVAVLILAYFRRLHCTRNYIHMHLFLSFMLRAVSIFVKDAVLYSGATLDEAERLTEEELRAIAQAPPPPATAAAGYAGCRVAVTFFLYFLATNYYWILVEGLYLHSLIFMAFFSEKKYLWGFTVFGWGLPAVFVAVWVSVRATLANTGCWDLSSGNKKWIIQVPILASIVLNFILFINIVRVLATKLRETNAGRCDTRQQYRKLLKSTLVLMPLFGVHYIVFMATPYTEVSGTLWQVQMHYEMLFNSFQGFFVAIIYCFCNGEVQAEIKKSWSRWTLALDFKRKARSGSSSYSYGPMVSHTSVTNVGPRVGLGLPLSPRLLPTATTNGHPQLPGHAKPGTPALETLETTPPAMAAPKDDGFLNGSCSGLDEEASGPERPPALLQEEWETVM
Type: cell-based

Compound | cAMP production activity (%)
Cc1nc(C)c(S(=O)(=O)N2CCC3(CC2)N=C(C2CCCCC2)NC3=O)s1 [Compound 58, 2-cyclohexyl-8-(2,4-dimethyl-thiazole-5-sulfonyl)-1,3,8-triaza-spiro[4.5]dec-1-en-4-one] | 39%
Cc1noc(C)c1S(=O)(=O)N1CCC2(CC1)N=C(C1CCCCC1)NC2=O [Compound 59, 2-cyclohexyl-8-(3,5-dimethyl-isoxazole-4-sulfonyl)-1,3,8-triaza-spiro[4.5]dec-1-en-4-one] | 56%
O=C1NC(C2CCCCC2)=NC12CCN(S(=O)(=O)c1ccc3c(c1)OCCO3)CC2 [Compound 60, 2-cyclohexyl-8-(2,3-dihydro-benzo[1,4]dioxine-6-sulfonyl)-1,3,8-triaza-spiro[4.5]dec-1-en-4-one] | 34%
O=C1NC(C2CCCCC2)=NC12CCN(S(=O)(=O)CCc1cccc3ccccc13)CC2 [Compound 61, 2-cyclohexyl-8-(2-naphthalen-1-yl-ethanesulfonyl)-1,3,8-triaza-spiro[4.5]dec-1-en-4-one] | 43%
COC(=O)c1sccc1S(=O)(=O)N1CCC2(CC1)N=C(C1CCCCC1)NC2=O [Compound 62, 3-(2-cyclohexyl-4-oxo-1,3,8-triaza-spiro[4.5]dec-1-ene-8-sulfonyl)-thiophene-2-carboxylic acid methyl ester] | 56%
COC(=O)c1cc(C)c(S(=O)(=O)N2CCC3(CC2)N=C(C2CCCCC2)NC3=O)s1 [Compound 63, 5-(2-cyclohexyl-4-oxo-1,3,8-triaza-spiro[4.5]dec-1-ene-8-sulfonyl)-4-methyl-thiophene-2-carboxylic acid methyl ester] | 51%
Cc1cc(S(=O)(=O)N2CCC3(CC2)N=C(C2CCCCC2)NC3=O)c(C)s1 [Compound 64, 2-cyclohexyl-8-(2,5-dimethyl-thiophene-3-sulfonyl)-1,3,8-triaza-spiro[4.5]dec-1-en-4-one] | 45%
O=C1NC(C2CCCCC2)=NC12CCN(S(=O)(=O)c1ccc(Br)s1)CC2 [Compound 65, 8-(5-bromo-thiophene-2-sulfonyl)-2-cyclohexyl-1,3,8-triaza-spiro[4.5]dec-1-en-4-one] | 65%
O=C1NC(c2cccc(C(F)(F)F)c2)=NC12CCN(S(=O)(=O)c1ccc(Cl)s1)CC2 [Compound 66, 8-(5-Chloro-thiophene-2-sulfonyl)-2-(3-trifluoromethyl-phenyl)-1,3,8-triaza-spiro[4.5]dec-1-en-4-one] | 57%
O=C1NC(c2cccc(C(F)(F)F)c2)=NC12CCN(S(=O)(=O)c1ccc3ccccc3c1)CC2 [Compound 67, 8-(naphthalene-2-sulfonyl)-2-(3-trifluoromethyl-phenyl)-1,3,8-triaza-spiro[4.5]dec-1-en-4-one] | 53%
O=C1NC(c2cccc(C(F)(F)F)c2)=NC12CCN(S(=O)(=O)c1cc3ccccc3s1)CC2 [Compound 68, 8-(benzo[b]thiophene-2-sulfonyl)-2-(3-trifluoromethyl-phenyl)-1,3,8-triaza-spiro[4.5]dec-1-en-4-one] | 51%
O=C1NC(c2cccc(C(F)(F)F)c2)=NC12CCN(S(=O)(=O)c1ccc(Br)s1)CC2 [Compound 69, 8-(5-bromo-thiophene-2-sulfonyl)-2-(3-trifluoromethyl-phenyl)-1,3,8-triaza-spiro[4.5]dec-1-en-4-one] | 61%
O=C1NC(C2CCCCC2)=NC12CCCN(S(=O)(=O)c1cccc(Cl)c1)CC2 (stereo not drawn) [Compound 70, 8-(3-Chloro-benzenesulfonyl)-2-cyclohexyl-1,3,8-triaza-spiro[4.6]undec-1-en-4-one] | 31%
O=C1NC(C2CCCCC2)=NC12CCCN(S(=O)(=O)c1cccc(Cl)c1)C2 (stereo not drawn) [Compound 71, 7-(3-chloro-benzenesulfonyl)-2-cyclohexyl-1,3,7-triaza-spiro[4.5]dec-1-en-4-one] | 3.7%
O=C1NC(C2CCCCC2)=NC12CCN(S(=O)(=O)c1cccc(Cl)c1)C2 (stereo not drawn) [Compound 72, 7-(3-chloro-benzenesulfonyl)-2-cyclohexyl-1,3,7-triaza-spiro[4.4]non-1-en-4-one] | 1.5%
Cc1cc(C(=O)N(C)C)ccc1CCS(=O)(=O)N1CCC2(CC1)N=C(C1CCC(C)CC1)NC2=O (stereo not drawn) [Compound 76, 3,N,N-trimethyl-4-{2-[2-(4-methyl-cyclohexyl)-4-oxo-1,3,8-triaza-spiro[4.5]dec-1-ene-8-sulfonyl]-ethyl}-benzamide] | 73%
Cc1cc(C(=O)N(C)C)ccc1CCS(=O)(=O)N1CCC2(CC1)N=C(C1CCCC1)NC2=O [Compound 77, 4-[2-(2-cyclopentyl-4-oxo-1,3,8-triaza-spiro[4.5]dec-1-ene-8-sulfonyl)-ethyl]-3,N,N-trimethyl-benzamide] | 69%

Second part, the compound after the results:

cAMP production activity (%) | Compound
66% | Cc1cc(C(=O)N(C)C)ccc1CCS(=O)(=O)N1CCC2(CC1)N=C(c1ccc(Cl)cc1Cl)NC2=O [Compound 73, 4-{2-[2-(2,4-Dichloro-phenyl)-4-oxo-1,3,8-triaza-spiro[4.5]dec-1-ene-8-sulfonyl]-ethyl}-3,N,N-trimethyl-benzamide]
48% | Cc1cc(C(=O)N(C)C)ccc1CCS(=O)(=O)N1CCC2(CC1)N=C(C(C)(C)C)NC2=O [Compound 74, 4-[2-(2-tert-butyl-4-oxo-1,3,8-triaza-spiro[4.5]dec-1-ene-8-sulfonyl)-ethyl]-3,N,N-trimethyl-benzamide]
75% | Cc1cc(C(=O)N(C)C)ccc1CCS(=O)(=O)N1CCC2(CC1)N=C(c1ccc(C(F)(F)F)cc1)NC2=O [Compound 75, 3,N,N-trimethyl-4-{2-[4-oxo-2-(4-trifluoromethyl-phenyl)-1,3,8-triaza-spiro[4.5]dec-1-ene-8-sulfonyl]-ethyl}-benzamide]
31% | Cc1cc(C(=O)N(C)C)ccc1CCS(=O)(=O)N1CCC2(CC1)N=C(c1c(F)cccc1F)NC2=O [Compound 78, 4-{2-[2-(2,6-difluoro-phenyl)-4-oxo-1,3,8-triaza-spiro[4.5]dec-1-ene-8-sulfonyl]-ethyl}-3,N,N-trimethyl-benzamide]
8.2% | COc1cccc(OC)c1C1=NC2(CCN(S(=O)(=O)CCc3ccc(C(=O)N(C)C)cc3C)CC2)C(=O)N1 [Compound 79, 4-{2-[2-(2,6-dimethoxy-phenyl)-4-oxo-1,3,8-triaza-spiro[4.5]dec-1-ene-8-sulfonyl]-ethyl}-3,N,N-trimethyl-benzamide]
71% | COc1cccc(C2=NC3(CCN(S(=O)(=O)CCc4ccc(C(=O)N(C)C)cc4C)CC3)C(=O)N2)c1 [Compound 80, 4-{2-[2-(3-methoxy-phenyl)-4-oxo-1,3,8-triaza-spiro[4.5]dec-1-ene-8-sulfonyl]-ethyl}-3,N,N-trimethyl-benzamide]
57% | Cc1cc(C(=O)N(C)C)ccc1CCS(=O)(=O)N1CCC2(CC1)N=C(c1cccc(Cl)c1)NC2=O [Compound 81, 4-{2-[2-(3-chloro-phenyl)-4-oxo-1,3,8-triaza-spiro[4.5]dec-1-ene-8-sulfonyl]-ethyl}-3,N,N-trimethyl-benzamide]
65% | Cc1cc(C(=O)N(C)C)ccc1CCS(=O)(=O)N1CCC2(CC1)N=C(c1cc(C(F)(F)F)cc(C(F)(F)F)c1)NC2=O [Compound 82, 4-{2-[2-(3,5-bis-trifluoromethyl-phenyl)-4-oxo-1,3,8-triaza-spiro[4.5]dec-1-ene-8-sulfonyl]-ethyl}-3,N,N-trimethyl-benzamide]
41% | Cc1cc(C(=O)N(C)C)ccc1CCS(=O)(=O)N1CCC2(CC1)N=C(Cc1ccccc1)NC2=O [Compound 83, 4-[2-(2-benzyl-4-oxo-1,3,8-triaza-spiro[4.5]dec-1-ene-8-sulfonyl)-ethyl]-3,N,N-trimethyl-benzamide]
51% | Cc1cccc(C2=NC3(CCN(S(=O)(=O)CCc4ccc(C(=O)N(C)C)cc4C)CC3)C(=O)N2)c1 [Compound 84, 3,N,N-trimethyl-4-[2-(4-oxo-2-m-tolyl-1,3,8-triaza-spiro[4.5]dec-1-ene-8-sulfonyl)-ethyl]-benzamide]
76% | Cc1cc(C(=O)N(C)C)ccc1CCS(=O)(=O)N1CCC2(CC1)N=C(c1cc(C(F)(F)F)ccc1Cl)NC2=O [Compound 85, 4-{2-[2-(2-chloro-5-trifluoromethyl-phenyl)-4-oxo-1,3,8-triaza-spiro[4.5]dec-1-ene-8-sulfonyl]-ethyl}-3,N,N-trimethyl-benzamide]
66% | Cc1cc(C(=O)N(C)C)ccc1CCS(=O)(=O)N1CCC2(CC1)N=C(c1cccc(C(F)(F)F)c1)NC2=O [Compound 86, 3,N,N-trimethyl-4-{2-[4-oxo-2-(3-trifluoromethyl-phenyl)-1,3,8-triaza-spiro[4.5]dec-1-ene-8-sulfonyl]-ethyl}-benzamide]
6.7% | Cc1cc(C(=O)N(C)C)ccc1CCS(=O)(=O)N1CCC2(CC1)N=C(c1ccc(Cl)cc1)NC2=O [Compound 87, 4-{2-[2-(4-chloro-phenyl)-4-oxo-1,3,8-triaza-spiro[4.5]dec-1-ene-8-sulfonyl]-ethyl}-3,N,N-trimethyl-benzamide]
